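Grown in 96-well plates, cells were treated for 48 hours with each compound at five concentrations. Insufficient inhibition: endpoint recorded as highest concentration tested. The concentration for 50% growth inhibition is given as GI50.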 Active and inactive are the calls of the source. Rule as the data show it: active = GI50 up to about 1.1 µM and inactive = higher.
Experiments:
Assay in all cases: growth of human tumour cells (NCI), 48 h
XF498 = system: XF498
HOP-92 = system: HOP-92
DLD-1 = system: DLD-1
Malme-3M = system: Malme-3M
U-251 = system: U-251
SK-OV-3 = system: SK-OV-3
A549 = system: A549
SN12C = system: SN12C
A498 = system: A498
LXFL 529 = system: LXFL 529
M19-MEL = system: M19-MEL
KM-20L2 = system: KM-20L2
K562 = system: K562
NCI-H522 = system: NCI-H522
MOLT-4 = system: MOLT-4
NCI-H226 = system: NCI-H226
HOP-18 = system: HOP-18

| SMILES | GI50 (XF498) | GI50 (HOP-92) | GI50 (DLD-1) | GI50 (Malme-3M) | GI50 (U-251) | GI50 (SK-OV-3) | GI50 (A549) | GI50 (SN12C) | GI50 (A498) | GI50 (LXFL 529) | GI50 (M19-MEL) | GI50 (KM-20L2) | GI50 (K562) | GI50 (NCI-H522) | GI50 (MOLT-4) | GI50 (NCI-H226) | GI50 (HOP-18) |
| --- | --- | --- | --- | --- | --- | --- | --- | --- | --- | --- | --- | --- | --- | --- | --- | --- | --- |
| NCCCCNCCCNC(=O)c1nc(-c2csc(CCN)n2)sc1Cl | > 100 µM (inactive) | > 100 µM (inactive) | > 100 µM (inactive) | > 100 µM (inactive) | > 100 µM (inactive) | > 100 µM (inactive) | > 100 µM (inactive) | > 100 µM (inactive) | > 100 µM (inactive) | 17.9 µM (inactive) | > 100 µM (inactive) | > 100 µM (inactive) | 49.5 µM (inactive) | > 100 µM (inactive) | > 100 µM (inactive) | > 100 µM (inactive) |  |
| CN(C)C(=O)N(CCCl)N=O | > 81.1 µM (inactive) | > 100 µM (inactive) | > 100 µM (inactive) | > 100 µM (inactive) | > 100 µM (inactive) | > 100 µM (inactive) | > 100 µM (inactive) | > 100 µM (inactive) | > 100 µM (inactive) |  | > 100 µM (inactive) | > 100 µM (inactive) | > 100 µM (inactive) | > 100 µM (inactive) | > 100 µM (inactive) | > 10 µM (inactive) | > 100 µM (inactive) |
| CCCCc1nccc2c(C)c3[nH]c4ccccc4c3cc12 |  | 3.74 µM (inactive) | 2.81 µM (inactive) | 6.04 µM (inactive) | 3.37 µM (inactive) | 5.81 µM (inactive) | 3.87 µM (inactive) | 6.98 µM (inactive) | 4.67 µM (inactive) |  | 3.1 µM (inactive) | 2.86 µM (inactive) | 1.95 µM (inactive) | 1.91 µM (inactive) | 1.98 µM (inactive) | 7.57 µM (inactive) | 0.486 µM (active) |
| Cc1ccc(C2C(Cl)C(=O)N2NC(=O)c2ccc(N)cc2)cc1 (stereo not given) | 13.3 µM (inactive) | 14.5 µM (inactive) | 20.5 µM (inactive) | 17.1 µM (inactive) | 14.6 µM (inactive) | 20.1 µM (inactive) | 27.7 µM (inactive) | 22.7 µM (inactive) | 22.5 µM (inactive) | 15.5 µM (inactive) | 19.8 µM (inactive) | 23.8 µM (inactive) | 22.5 µM (inactive) | 12 µM (inactive) | 11.4 µM (inactive) | 27.4 µM (inactive) |  |
| O=C1c2ccccc2C(=O)c2nc3c(O)cccc3cc21 |  |  | 9.75 µM (inactive) | 53.5 µM (inactive) | 20.8 µM (inactive) |  | 17.8 µM (inactive) | 25.4 µM (inactive) | 25.9 µM (inactive) | 4.57 µM (inactive) | 2.12 µM (inactive) | 26.7 µM (inactive) | 5.83 µM (inactive) | 4.97 µM (inactive) | 3.38 µM (inactive) | 74.5 µM (inactive) | 24.9 µM (inactive) |
| CC1=NOC(=O)/C1=C/c1ccc([N+](=O)[O-])cc1 | > 100 µM (inactive) | > 100 µM (inactive) | > 100 µM (inactive) | > 100 µM (inactive) | > 100 µM (inactive) | > 100 µM (inactive) | > 100 µM (inactive) | > 100 µM (inactive) | > 100 µM (inactive) |  |  | > 100 µM (inactive) | > 100 µM (inactive) | > 100 µM (inactive) | > 100 µM (inactive) | > 100 µM (inactive) | > 100 µM (inactive) |
| CC(=O)c1sc(Nc2nnc(-c3ccc(-c4nnc(Nc5nc(C)c(C(C)=O)s5)o4)cc3)o2)nc1C |  | > 100 µM (inactive) | > 100 µM (inactive) | > 100 µM (inactive) | > 100 µM (inactive) | > 10 µM (inactive) | > 10 µM (inactive) | > 100 µM (inactive) | > 100 µM (inactive) | > 100 µM (inactive) |  | > 100 µM (inactive) | > 100 µM (inactive) | > 10 µM (inactive) | > 100 µM (inactive) | > 100 µM (inactive) | > 100 µM (inactive) |
| O=C(CC1(O)C(=O)Nc2ccc(Br)cc21)c1cccc([N+](=O)[O-])c1 (stereo not given) |  | 20.8 µM (inactive) | 34.5 µM (inactive) | > 100 µM (inactive) | > 100 µM (inactive) | > 100 µM (inactive) | > 100 µM (inactive) | > 100 µM (inactive) |  | 22.5 µM (inactive) |  | 74.6 µM (inactive) | 20.6 µM (inactive) | 22.2 µM (inactive) | 24.9 µM (inactive) | 26.9 µM (inactive) | 23.6 µM (inactive) |
| O=C1NC2CCC(C2)C1c1ccccc1 (stereo not given) |  |  | > 100 µM (inactive) | > 100 µM (inactive) | > 100 µM (inactive) | > 100 µM (inactive) | > 100 µM (inactive) | > 100 µM (inactive) | > 100 µM (inactive) | > 100 µM (inactive) | > 100 µM (inactive) |  | > 100 µM (inactive) |  | > 100 µM (inactive) | > 100 µM (inactive) | > 100 µM (inactive) |
| O=S1(=O)C(=C(c2ccccc2)c2ccccc2)S(=O)(=O)c2ccccc21 | 24.7 µM (inactive) | 20.6 µM (inactive) | > 100 µM (inactive) | 53.1 µM (inactive) | 51.6 µM (inactive) | > 56.5 µM (inactive) | > 100 µM (inactive) | > 100 µM (inactive) | > 74.3 µM (inactive) |  | > 100 µM (inactive) | > 100 µM (inactive) | > 100 µM (inactive) | > 100 µM (inactive) | > 100 µM (inactive) | > 60.3 µM (inactive) | 51.6 µM (inactive) |
| CCC12CCC(O)C1N(C)CCC2Sc1ccccc1 (stereo not given) | 26.4 µM (inactive) | 28.6 µM (inactive) |  | 35.2 µM (inactive) | 78.2 µM (inactive) | > 100 µM (inactive) | > 100 µM (inactive) | > 100 µM (inactive) | > 100 µM (inactive) |  | > 100 µM (inactive) | 41.3 µM (inactive) | 37.4 µM (inactive) | > 100 µM (inactive) | 28.5 µM (inactive) | 23.4 µM (inactive) | 46.7 µM (inactive) |
| O=C(O)C1c2ccccc2C(C(=O)O)c2ccccc21 (stereo not given) |  | > 100 µM (inactive) | > 100 µM (inactive) | > 100 µM (inactive) | > 100 µM (inactive) | > 100 µM (inactive) | > 100 µM (inactive) | > 100 µM (inactive) | > 100 µM (inactive) | > 100 µM (inactive) | > 100 µM (inactive) | > 100 µM (inactive) | > 100 µM (inactive) | > 100 µM (inactive) | > 100 µM (inactive) |  | > 100 µM (inactive) |
| COc1ccc(/C(Cl)=C(\C=O)c2ccc(Cl)cc2)cc1 |  |  | 4.85 µM (inactive) | 23.3 µM (inactive) | 3.79 µM (inactive) | 40.9 µM (inactive) | 5.61 µM (inactive) | 3.08 µM (inactive) | 30.1 µM (inactive) | 9.23 µM (inactive) | 9.77 µM (inactive) | 6.41 µM (inactive) | 3.81 µM (inactive) | 2.19 µM (inactive) | 2.63 µM (inactive) | 6.35 µM (inactive) | 30.3 µM (inactive) |

Source: ChEMBL document CHEMBL1201862, “PubChem BioAssay data set” (2004)
